Laboratory results reported in ChEMBL document CHEMBL3991601, “The target landscape of clinical kinase drugs” (Science, 2017).
The source made the active and inactive calls.

Tests used:
[1] = biological target: Cyclin-dependent kinase 2 (Homo sapiens, UniProt P24941)
[2] = biological target: Guanine nucleotide-binding protein G(i) subunit alpha-2 (Homo sapiens, UniProt P04899)
[3] = biological target: Protein kinase C theta type (Homo sapiens, UniProt Q04759)
[4] = biological target: Dual specificity protein kinase CLK4 (Homo sapiens, UniProt Q9HAZ1)
Chain of Dual specificity protein kinase CLK4 (Q9HAZ1 whole entry): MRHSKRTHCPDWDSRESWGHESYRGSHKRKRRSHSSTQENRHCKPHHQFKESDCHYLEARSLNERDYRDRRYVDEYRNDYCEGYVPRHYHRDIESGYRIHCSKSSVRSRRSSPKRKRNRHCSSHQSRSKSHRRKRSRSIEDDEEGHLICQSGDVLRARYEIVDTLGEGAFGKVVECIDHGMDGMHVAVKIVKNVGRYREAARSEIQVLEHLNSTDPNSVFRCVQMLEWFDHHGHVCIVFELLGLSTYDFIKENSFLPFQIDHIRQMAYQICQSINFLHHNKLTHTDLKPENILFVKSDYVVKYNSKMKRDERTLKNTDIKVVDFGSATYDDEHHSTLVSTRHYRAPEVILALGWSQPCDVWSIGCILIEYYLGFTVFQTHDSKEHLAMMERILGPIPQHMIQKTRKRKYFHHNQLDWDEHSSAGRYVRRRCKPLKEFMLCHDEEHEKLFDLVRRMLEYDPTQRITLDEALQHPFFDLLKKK

[5] = biological target: T1, Phosphatidylinositol 5-phosphate 4-kinase type-2 alpha (Homo sapiens, UniProt P48426)
T1 sequence (P48426 whole entry): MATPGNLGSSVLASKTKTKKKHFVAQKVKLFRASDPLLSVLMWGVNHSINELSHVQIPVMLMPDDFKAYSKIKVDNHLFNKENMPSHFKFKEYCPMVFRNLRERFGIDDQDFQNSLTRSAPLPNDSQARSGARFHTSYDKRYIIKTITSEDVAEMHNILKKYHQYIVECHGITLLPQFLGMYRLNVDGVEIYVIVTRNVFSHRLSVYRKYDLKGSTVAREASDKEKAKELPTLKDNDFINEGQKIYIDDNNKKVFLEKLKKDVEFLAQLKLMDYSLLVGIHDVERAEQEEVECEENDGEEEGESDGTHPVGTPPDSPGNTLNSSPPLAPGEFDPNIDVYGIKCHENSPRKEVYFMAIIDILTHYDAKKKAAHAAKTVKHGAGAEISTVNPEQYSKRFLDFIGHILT

[6] = biological target: T2, Thyroid hormone receptor-associated protein 3 (Homo sapiens, UniProt Q9Y2W1)
T2 sequence (Q9Y2W1 whole entry): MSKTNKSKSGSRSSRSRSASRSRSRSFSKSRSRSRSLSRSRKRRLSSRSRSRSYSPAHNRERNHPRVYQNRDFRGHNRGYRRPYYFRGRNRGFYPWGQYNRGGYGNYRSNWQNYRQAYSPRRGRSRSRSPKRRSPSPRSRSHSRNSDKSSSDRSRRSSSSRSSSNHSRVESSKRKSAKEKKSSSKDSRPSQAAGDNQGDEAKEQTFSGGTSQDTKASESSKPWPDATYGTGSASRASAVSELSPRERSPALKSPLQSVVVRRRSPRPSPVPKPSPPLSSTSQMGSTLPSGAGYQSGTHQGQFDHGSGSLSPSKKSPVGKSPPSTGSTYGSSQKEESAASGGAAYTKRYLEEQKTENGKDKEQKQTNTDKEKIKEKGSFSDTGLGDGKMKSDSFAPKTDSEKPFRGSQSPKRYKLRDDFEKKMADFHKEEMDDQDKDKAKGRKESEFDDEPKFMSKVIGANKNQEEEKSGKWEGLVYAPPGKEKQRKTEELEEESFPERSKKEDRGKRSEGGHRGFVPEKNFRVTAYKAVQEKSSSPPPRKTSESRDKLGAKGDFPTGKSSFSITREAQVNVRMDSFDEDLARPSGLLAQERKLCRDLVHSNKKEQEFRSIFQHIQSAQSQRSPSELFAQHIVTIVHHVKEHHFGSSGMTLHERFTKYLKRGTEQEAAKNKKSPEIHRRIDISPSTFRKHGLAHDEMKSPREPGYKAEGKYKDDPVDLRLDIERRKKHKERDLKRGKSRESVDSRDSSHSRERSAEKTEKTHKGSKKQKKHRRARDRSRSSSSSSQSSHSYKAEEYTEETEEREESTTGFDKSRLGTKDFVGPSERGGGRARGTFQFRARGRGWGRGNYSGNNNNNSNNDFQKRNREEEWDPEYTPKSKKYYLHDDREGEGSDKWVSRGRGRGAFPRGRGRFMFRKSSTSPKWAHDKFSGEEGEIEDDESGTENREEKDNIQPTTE

[7] = biological target: T3, Cyclin-dependent kinase-like 5 (Homo sapiens, UniProt O76039)
T3 sequence (O76039 whole entry): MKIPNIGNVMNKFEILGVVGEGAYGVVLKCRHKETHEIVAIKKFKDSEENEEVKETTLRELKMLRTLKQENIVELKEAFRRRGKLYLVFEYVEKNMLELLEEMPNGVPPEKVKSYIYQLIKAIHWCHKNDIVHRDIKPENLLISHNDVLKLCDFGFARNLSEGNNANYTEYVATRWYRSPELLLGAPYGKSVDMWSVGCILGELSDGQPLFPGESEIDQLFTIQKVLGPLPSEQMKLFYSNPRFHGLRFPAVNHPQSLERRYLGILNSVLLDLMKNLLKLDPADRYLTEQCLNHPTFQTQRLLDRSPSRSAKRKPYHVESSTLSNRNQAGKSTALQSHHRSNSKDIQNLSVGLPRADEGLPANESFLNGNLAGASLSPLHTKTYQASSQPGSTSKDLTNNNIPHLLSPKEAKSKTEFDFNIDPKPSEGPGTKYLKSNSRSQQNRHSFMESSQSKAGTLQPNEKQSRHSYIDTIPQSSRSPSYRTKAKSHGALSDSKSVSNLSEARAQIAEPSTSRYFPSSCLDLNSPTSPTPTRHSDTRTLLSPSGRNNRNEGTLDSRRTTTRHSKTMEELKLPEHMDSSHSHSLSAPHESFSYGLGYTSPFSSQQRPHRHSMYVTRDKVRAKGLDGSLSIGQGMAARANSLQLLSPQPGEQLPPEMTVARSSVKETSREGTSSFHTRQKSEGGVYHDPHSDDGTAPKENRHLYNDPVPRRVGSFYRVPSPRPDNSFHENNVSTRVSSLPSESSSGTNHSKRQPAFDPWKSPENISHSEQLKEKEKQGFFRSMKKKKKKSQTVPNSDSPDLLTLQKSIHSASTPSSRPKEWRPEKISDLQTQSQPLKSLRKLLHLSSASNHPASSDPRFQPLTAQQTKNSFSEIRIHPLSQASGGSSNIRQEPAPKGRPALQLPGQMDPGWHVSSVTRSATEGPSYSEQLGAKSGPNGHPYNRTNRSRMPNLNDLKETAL

UMP-CMP kinase = biological target: T4, UMP-CMP kinase (Homo sapiens, UniProt P30085)
T4 sequence (P30085 whole entry): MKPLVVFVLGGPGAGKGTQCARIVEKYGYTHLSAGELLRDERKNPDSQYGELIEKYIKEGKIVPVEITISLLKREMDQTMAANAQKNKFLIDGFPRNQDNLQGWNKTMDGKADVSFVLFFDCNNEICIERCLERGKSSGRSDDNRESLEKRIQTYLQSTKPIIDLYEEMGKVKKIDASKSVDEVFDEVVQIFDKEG
Further: in the data inactive means no Kd found up to 30 µM.

Chain of Guanine nucleotide-binding protein G(i) subunit alpha-2 (P04899 whole entry): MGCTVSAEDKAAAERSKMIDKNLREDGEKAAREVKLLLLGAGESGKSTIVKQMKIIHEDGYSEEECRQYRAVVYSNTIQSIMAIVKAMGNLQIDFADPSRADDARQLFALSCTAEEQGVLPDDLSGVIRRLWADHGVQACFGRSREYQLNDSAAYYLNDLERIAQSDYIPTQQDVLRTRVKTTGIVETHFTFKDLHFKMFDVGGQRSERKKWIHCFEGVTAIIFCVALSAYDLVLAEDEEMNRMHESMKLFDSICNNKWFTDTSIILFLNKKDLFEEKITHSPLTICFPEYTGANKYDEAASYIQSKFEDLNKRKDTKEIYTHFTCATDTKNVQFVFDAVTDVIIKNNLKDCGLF
Chain of Protein kinase C theta type (Q04759 whole entry): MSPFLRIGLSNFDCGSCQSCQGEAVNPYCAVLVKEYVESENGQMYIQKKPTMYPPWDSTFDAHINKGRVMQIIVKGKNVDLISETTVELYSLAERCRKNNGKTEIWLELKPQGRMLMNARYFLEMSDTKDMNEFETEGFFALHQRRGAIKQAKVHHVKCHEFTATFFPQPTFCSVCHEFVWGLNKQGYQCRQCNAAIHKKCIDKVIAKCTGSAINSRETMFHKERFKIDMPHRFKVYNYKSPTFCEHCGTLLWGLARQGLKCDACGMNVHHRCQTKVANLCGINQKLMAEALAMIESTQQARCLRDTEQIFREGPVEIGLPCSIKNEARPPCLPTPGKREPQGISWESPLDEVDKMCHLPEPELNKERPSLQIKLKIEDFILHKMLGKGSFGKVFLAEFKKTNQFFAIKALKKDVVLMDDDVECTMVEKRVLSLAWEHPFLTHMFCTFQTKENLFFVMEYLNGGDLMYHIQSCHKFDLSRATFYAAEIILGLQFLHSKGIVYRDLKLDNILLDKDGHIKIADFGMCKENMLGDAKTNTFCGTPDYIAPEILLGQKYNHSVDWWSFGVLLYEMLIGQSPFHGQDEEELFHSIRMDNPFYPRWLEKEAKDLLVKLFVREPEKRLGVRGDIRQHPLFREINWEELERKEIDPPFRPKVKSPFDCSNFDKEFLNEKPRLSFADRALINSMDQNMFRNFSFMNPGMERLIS

| SMILES | Kd [1] | Kd [2] | Kd [3] | Kd [4] | Kd [5] | Kd [6] | Kd [7] | Kd (UMP-CMP kinase) |
| --- | --- | --- | --- | --- | --- | --- | --- | --- |
| Cn1ncc(Cl)c1-c1cc(C(=O)N[C@H](CN)Cc2cccc(F)c2)sc1Cl [AFURESERTIB] | > 30 µM (inactive) | > 30 µM (inactive) | > 30 µM (inactive) |  |  |  |  |  |
| CNS(=O)(=O)Nc1nccc(Cc2c(C)c3ccc(Oc4ncccn4)cc3oc2=O)c1F [AVUTOMETINIB] | > 30 µM (inactive) | > 30 µM (inactive) | > 30 µM (inactive) | > 30 µM (inactive) | > 30 µM (inactive) | > 30 µM (inactive) |  |  |
| C[C@@H](Nc1cc(F)cc(F)c1)c1cc(C(=O)N(C)C)cc2c(=O)cc(N3CCOCC3)oc12 [AZD-8186] | > 30 µM (inactive) | > 30 µM (inactive) |  |  | > 30 µM (inactive) |  | > 30 µM (inactive) |  |
| Cc1cc2c(F)c(Oc3ncnn4cc(OC[C@@H](C)OC(=O)[C@H](C)N)c(C)c34)ccc2[nH]1 [BRIVANIB ALANINATE] | > 30 µM (inactive) | > 30 µM (inactive) | > 30 µM (inactive) |  | > 30 µM (inactive) | > 30 µM (inactive) | > 30 µM (inactive) | > 30 µM (inactive) |
| CNC(=O)c1ccc(-c2cnc3ncc(Cc4ccc5ncccc5c4)n3n2)cc1F [CAPMATINIB] | > 30 µM (inactive) | > 30 µM (inactive) | > 30 µM (inactive) |  | > 30 µM (inactive) |  | 2.04 µM |  |
| Cc1cn(-c2cc(NC(=O)c3ccc(C)c(Nc4nccc(-c5cccnc5)n4)c3)cc(C(F)(F)F)c2)cn1 [NILOTINIB] |  |  |  |  | > 30 µM (inactive) | > 30 µM (inactive) |  | > 30 µM (inactive) |
| C=CC(=O)N1CCC(Oc2cc3c(Nc4ccc(Cl)c(Cl)c4F)ncnc3cc2OC)CC1 [POZIOTINIB] | > 30 µM (inactive) | > 30 µM (inactive) |  |  |  |  | > 30 µM (inactive) |  |
| O=C(Nc1cccc(Cl)c1)Nc1ncc(CCNc2ncnc3ccsc23)s1 [SNS-314] |  | > 30 µM (inactive) |  |  | > 30 µM (inactive) | > 30 µM (inactive) | > 30 µM (inactive) | > 30 µM (inactive) |

The next lines start with the values.

| Kd [1] | Kd [2] | Kd [3] | Kd [4] | Kd [5] | Kd [6] | Kd [7] | Kd (UMP-CMP kinase) | SMILES |
| --- | --- | --- | --- | --- | --- | --- | --- | --- |
|  |  |  |  | > 30 µM (inactive) | > 30 µM (inactive) |  | > 30 µM (inactive) | Cc1nc(N)sc1-c1ccnc(Nc2ccc(N3CCOCC3)cc2)n1 [CYC-116] |
|  | > 30 µM (inactive) |  |  | > 30 µM (inactive) | > 30 µM (inactive) | > 30 µM (inactive) | > 30 µM (inactive) | CCc1cnn2c(NCc3ccc[n+]([O-])c3)cc(N3CCCC[C@H]3CCO)nc12 [DINACICLIB] |
|  |  |  |  | > 30 µM (inactive) |  |  |  | CN1CCN(c2ccc3nc(-c4c(N)c5c(F)cccc5[nH]c4=O)[nH]c3c2)CC1 [DOVITINIB] |
|  | > 30 µM (inactive) |  |  |  | > 30 µM (inactive) |  | > 30 µM (inactive) | Cc1cc(Nc2cc(N3CCN(C)CC3)nc(/C=C/c3ccccc3)n2)n[nH]1 [ENMD-2076] |
|  |  |  |  |  | > 30 µM (inactive) |  | > 30 µM (inactive) | CCn1c(-c2nonc2N)nc2c(C#CC(C)(C)O)ncc(OC[C@H]3CCCNC3)c21 [GSK-690693] |
| > 30 µM (inactive) | > 30 µM (inactive) | > 30 µM (inactive) |  | > 30 µM (inactive) | > 30 µM (inactive) | > 30 µM (inactive) | > 30 µM (inactive) | Cn1cc(-c2ccc(F)c(C(F)(F)F)c2)nc1C1CCN(c2ncnc3[nH]ncc23)CC1 [LY-2584702] |
| > 30 µM (inactive) |  |  |  |  | > 30 µM (inactive) | > 30 µM (inactive) |  | C1=C/COCc2cc(ccc2OCCN2CCCC2)Nc2nccc(n2)-c2cccc(c2)COC/1 [PACRITINIB] |
| > 30 µM (inactive) | > 30 µM (inactive) |  |  |  |  |  |  | CNC(=O)c1ccc(C)c(-n2c(C)cc(OCc3ccc(F)cc3F)c(Br)c2=O)c1 [PH-797804] |
|  | > 30 µM (inactive) |  |  | 7.02 µM | > 30 µM (inactive) |  |  | Nc1nc(N)c2nc(-c3cccc(O)c3)c(-c3cccc(O)c3)nc2n1 [TG100-115] |
| > 30 µM (inactive) |  | > 30 µM (inactive) |  | > 30 µM (inactive) | > 30 µM (inactive) |  | > 30 µM (inactive) | CN1N=C(N)c2cn([C@@H]3O[C@H](COP(=O)(O)O)[C@@H](O)[C@H]3O)c3ncnc1c23 [TRICIRIBINE PHOSPHATE] |
